Structures can show the parent of a compound that is named as a salt.
Tests used:
[1] = system: Human umbilical vein endothelial cells (HUVEC); assay: Inhibition of growth factor-mediated cell proliferation (hFGF-2, HUVEC); format: cell-based; details: 72 h, read-out: hFGF-2 mediated HUVEC proliferation, IC50 [nM]
[2] = biological target: human FGFR-3 (Homo sapiens (Human), UniProt P22607); assay: FGFR-3 kinase assay (TR-FRET); format: biochemical; details: 10 μM ATP, 15 min pre-incubation with enzyme, compounds of the invention
Sequence of human FGFR-3 (P22607 397-806): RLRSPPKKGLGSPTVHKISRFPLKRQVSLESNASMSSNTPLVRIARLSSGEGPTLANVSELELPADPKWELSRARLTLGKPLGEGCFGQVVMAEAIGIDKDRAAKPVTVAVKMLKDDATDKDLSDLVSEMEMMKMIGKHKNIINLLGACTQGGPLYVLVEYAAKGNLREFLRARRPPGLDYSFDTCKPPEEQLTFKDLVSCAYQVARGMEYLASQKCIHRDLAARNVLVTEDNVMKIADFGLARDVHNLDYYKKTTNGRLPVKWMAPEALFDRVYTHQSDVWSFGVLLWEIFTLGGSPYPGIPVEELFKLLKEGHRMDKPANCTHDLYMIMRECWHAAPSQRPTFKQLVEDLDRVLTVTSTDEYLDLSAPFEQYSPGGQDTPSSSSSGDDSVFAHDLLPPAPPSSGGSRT

[3] = biological target: human mTOR (Homo sapiens (Human), UniProt P42345); assay: mTOR kinase assay (TR-FRET, for comparative purposes); format: biochemical; details: mean inhibition at 1 μM test compound; 40 μM ATP
Sequence of human mTOR (P42345 1360-2549): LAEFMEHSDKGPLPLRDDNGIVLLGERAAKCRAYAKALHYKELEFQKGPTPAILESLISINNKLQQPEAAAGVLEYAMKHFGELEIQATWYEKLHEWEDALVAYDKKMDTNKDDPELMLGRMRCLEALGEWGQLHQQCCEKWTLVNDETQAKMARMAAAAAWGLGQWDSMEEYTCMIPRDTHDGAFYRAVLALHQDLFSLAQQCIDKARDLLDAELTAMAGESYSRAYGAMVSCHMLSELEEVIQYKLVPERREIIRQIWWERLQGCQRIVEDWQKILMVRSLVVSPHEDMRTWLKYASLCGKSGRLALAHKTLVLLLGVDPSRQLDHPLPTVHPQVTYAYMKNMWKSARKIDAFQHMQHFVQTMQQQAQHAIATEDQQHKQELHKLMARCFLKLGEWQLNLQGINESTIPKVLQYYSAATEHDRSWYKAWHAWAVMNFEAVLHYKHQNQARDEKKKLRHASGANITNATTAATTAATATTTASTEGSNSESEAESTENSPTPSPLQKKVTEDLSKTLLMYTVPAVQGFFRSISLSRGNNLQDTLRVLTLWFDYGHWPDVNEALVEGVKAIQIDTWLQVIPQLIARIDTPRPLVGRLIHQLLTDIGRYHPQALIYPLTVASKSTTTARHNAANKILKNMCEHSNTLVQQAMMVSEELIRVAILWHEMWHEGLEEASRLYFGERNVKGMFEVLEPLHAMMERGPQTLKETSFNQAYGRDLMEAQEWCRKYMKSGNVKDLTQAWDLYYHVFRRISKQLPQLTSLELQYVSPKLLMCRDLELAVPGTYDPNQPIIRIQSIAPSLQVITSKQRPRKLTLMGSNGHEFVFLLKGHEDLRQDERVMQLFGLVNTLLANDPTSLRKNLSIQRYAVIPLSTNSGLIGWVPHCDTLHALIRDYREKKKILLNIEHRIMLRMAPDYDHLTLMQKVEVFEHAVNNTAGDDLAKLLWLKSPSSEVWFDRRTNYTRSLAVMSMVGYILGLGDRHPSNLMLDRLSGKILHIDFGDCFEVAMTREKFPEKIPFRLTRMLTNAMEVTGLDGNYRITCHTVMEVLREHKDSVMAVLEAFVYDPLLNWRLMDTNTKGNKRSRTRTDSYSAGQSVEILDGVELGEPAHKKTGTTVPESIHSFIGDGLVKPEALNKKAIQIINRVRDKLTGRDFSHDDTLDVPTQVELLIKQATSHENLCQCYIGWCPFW

[4] = biological target: human FGFR-1 (Homo sapiens, UniProt P11362); assay: FGFR-1 high ATP kinase assay (TR-FRET); format: biochemical; details: 2 mM ATP; 15 min pre-incubation with enzyme; compounds of the invention
Sequence of human FGFR-1 (P11362 22-822 limits assumed): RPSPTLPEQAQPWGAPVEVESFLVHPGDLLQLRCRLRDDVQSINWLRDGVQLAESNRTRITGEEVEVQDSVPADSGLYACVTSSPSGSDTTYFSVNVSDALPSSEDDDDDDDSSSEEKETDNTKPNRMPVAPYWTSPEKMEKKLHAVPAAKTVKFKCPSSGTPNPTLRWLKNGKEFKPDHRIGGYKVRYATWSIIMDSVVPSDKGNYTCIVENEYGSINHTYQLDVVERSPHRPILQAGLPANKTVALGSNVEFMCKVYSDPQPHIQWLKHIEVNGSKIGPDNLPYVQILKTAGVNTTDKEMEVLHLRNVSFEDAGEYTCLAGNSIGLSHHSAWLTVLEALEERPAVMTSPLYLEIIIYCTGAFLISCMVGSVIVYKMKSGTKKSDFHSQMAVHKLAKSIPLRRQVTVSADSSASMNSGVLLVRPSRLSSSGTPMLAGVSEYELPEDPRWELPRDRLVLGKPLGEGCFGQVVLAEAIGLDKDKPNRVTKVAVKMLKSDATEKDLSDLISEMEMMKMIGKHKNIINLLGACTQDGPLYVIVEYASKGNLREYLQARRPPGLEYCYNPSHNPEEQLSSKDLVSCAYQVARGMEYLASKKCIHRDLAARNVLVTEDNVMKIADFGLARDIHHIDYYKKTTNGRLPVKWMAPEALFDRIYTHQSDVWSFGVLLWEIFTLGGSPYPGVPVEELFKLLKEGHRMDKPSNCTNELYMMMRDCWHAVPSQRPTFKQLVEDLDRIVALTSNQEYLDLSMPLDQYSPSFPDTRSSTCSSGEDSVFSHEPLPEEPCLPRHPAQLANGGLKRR

| Structure (SMILES) | IC50 [1] [nM] | IC50 [2] [nM] | mTOR inhibition @ 1 μM [3] | IC50 [4] [nM] | IC50 ([2]; dihydrochloride) [nM] |
| --- | --- | --- | --- | --- | --- |
| COCc1c(-c2cc3cc(C)cc(OC)c3s2)c2c(N)ncnn2c1CN1CCN(C(C)=O)CC1 [Example 16, 1-(4-{[4-Amino-6-(methoxymethyl)-5-(7-methoxy-5-methyl-1-benzothiophen-2-yl)pyrrolo[2,1-f]-[1,2,4]triazin-7-yl]methyl}piperazin-1-yl)ethanone dihydrochloride] | 117 | – | – | – | – |
| COc1cc(C)cc2cc(-c3c(CN4CCC(O)C4)c(CN4CCNCC4)n4ncnc(N)c34)sc12 (racemic) [Example 42, rac-1-{[4-Amino-5-(7-methoxy-5-methyl-1-benzothiophen-2-yl)-7-(piperazin-1-ylmethyl)pyrrolo-[2,1-f][1,2,4]triazin-6-yl]methyl}pyrrolidin-3-ol trihydrochloride] | – | 18.4 | no inhib. effect detect. | – | – |
| COCCOCc1c(-c2cc3cc(C)cc(OC)c3s2)c2c(N)ncnn2c1CN1CCNCC1 [Example 28, 6-[(2-Methoxyethoxy)methyl]-5-(7-methoxy-5-methyl-1-benzothiophen-2-yl)-7-(piperazin-1-ylmethyl)pyrrolo[2,1-f][1,2,4]triazin-4-amine formiate] | – | 9.7 | no inhib. effect detect. | 2.1 | – |
| CCOCc1c(-c2cc3cc(C)cc(OC)c3s2)c2c(N)ncnn2c1C(=O)N1CCNC(=O)C1 [Example 107, 4-{[4-Amino-6-(ethoxymethyl)-5-(7-methoxy-5-methyl-1-benzothiophen-2-yl)pyrrolo[2,1-f]-[1,2,4]triazin-7-yl]carbonyl}piperazin-2-one] | – | 17.4 | no inhib. effect detect. | 9.4 | – |
| COc1cc(C)cc2cc(-c3c(CNCC(=O)O)c(CN4CCNCC4)n4ncnc(N)c34)sc12 [Example 48, N-{[4-Amino-5-(7-methoxy-5-methyl-1-benzothiophen-2-yl)-7-(piperazin-1-ylmethyl)pyrrolo-[2,1-f][1,2,4]triazin-6-yl]methyl}glycine trihydrochloride] | 360 | 45.4 | – | – | – |
| CCNCc1c(-c2cc3cc(C)cc(OC)c3s2)c2c(N)ncnn2c1CN1CCNCC1 [Example 38, 6-[(Ethylamino)methyl]-5-(7-methoxy-5-methyl-1-benzothiophen-2-yl)-7-(piperazin-1-ylmethyl)pyrrolo[2,1-f][1,2,4]triazin-4-amine trihydrochloride] | 213 | – | – | – | – |
| COCc1c(-c2cc3cc(C)ccc3s2)c2c(N)ncnn2c1CN1CCNC(=O)C1 [Example 89, 4-{[4-Amino-6-(methoxymethyl)-5-(5-methyl-1-benzothiophen-2-yl)pyrrolo[2,1-f][1,2,4]triazin-7-yl]methyl}piperazin-2-one] | – | – | no inhib. effect detect. | 82.9 | – |
| COCc1c(-c2cc3cc(C)cc(OC)c3s2)c2c(N)ncnn2c1CN1CC[C@](C)(N)C1 [Example 14, 7-{[(3S)-3-Amino-3-methylpyrrolidin-1-yl]methyl}-6-(methoxymethyl)-5-(7-methoxy-5-methyl-1-benzothiophen-2-yl)pyrrolo[2,1-f][1,2,4]triazin-4-amine trihydrochloride] | 25 | – | – | 1.4 | – |
| COc1cc(C)cc2cc(-c3c(CN4CCC(O)CC4)c(CN4CCNCC4)n4ncnc(N)c34)sc12 [Example 41, 1-{[4-Amino-5-(7-methoxy-5-methyl-1-benzothiophen-2-yl)-7-(piperazin-1-ylmethyl)pyrrolo-[2,1-f][1,2,4]triazin-6-yl]methyl}piperidin-4-ol trihydrochloride] | – | 7.2 | no inhib. effect detect. | 2.8 | – |
| CCOCc1c(-c2cc3cc(C)cc(OC)c3s2)c2c(N)ncnn2c1CN1CCN(C(C)=O)CC1 [Example 11, 1-(4-{[4-Amino-6-(ethoxymethyl)-5-(7-methoxy-5-methyl-1-benzothiophen-2-yl)pyrrolo[2,1-f]-[1,2,4]triazin-7-yl]methyl}piperazin-1-yl)ethanone dihydrochloride] | 150 | – | – | – | 13 |
| CCOCc1c(-c2cc3cc(C)cc(OC)c3s2)c2c(N)ncnn2c1CN1CCC(O)CC1 [Example 98] | – | – | no inhib. effect detect. | 17 | – |
| CCOCc1c(-c2cc3cc(C)cc(OC)c3s2)c2c(N)ncnn2c1C(=O)N1CCS(=O)(=O)C1 [Example 119] | – | 4.5 | no inhib. effect detect. | 9 | – |
| COc1cc(C)cc2cc(-c3c(CNC4CC4)c(CN4CCNCC4)n4ncnc(N)c34)sc12 [Example 46, 6-[(Cyclopropylamino)methyl]-5-(7-methoxy-5-methyl-1-benzothiophen-2-yl)-7-(piperazin-1-ylmethyl)pyrrolo[2,1-f][1,2,4]triazin-4-amine trihydrochloride] | 84.5 | – | – | – | – |
| COc1cc(C)cc2cc(-c3c(CNCCO)c(CN4CCNCC4)n4ncnc(N)c34)sc12 [Example 39, 2-({[4-Amino-5-(7-methoxy-5-methyl-1-benzothiophen-2-yl)-7-(piperazin-1-ylmethyl)pyrrolo-[2,1-f][1,2,4]triazin-6-yl]methyl}amino)ethanol trihydrochloride] | 365 | – | – | – | – |
| CCOCc1c(-c2cc3cc(C)cc(OC)c3s2)c2c(N)ncnn2c1C(=O)N1CCC(O)CC1 [Example 121] | – | 24.6 | no inhib. effect detect. | 8.2 | – |
| COc1cc(C)cc2cc(-c3c(CNC(C)=O)c(CN4CCNCC4)n4ncnc(N)c34)sc12 [Example 64, N-{[4-Amino-5-(7-methoxy-5-methyl-1-benzothiophen-2-yl)-7-(piperazin-1-ylmethyl)pyrrolo-[2,1-f][1,2,4]triazin-6-yl]methyl}acetamide dihydrochloride] | 4.5 | – | – | – | – |
| CCOCc1c(-c2cc3cc(C)cc(OC)c3s2)c2c(N)ncnn2c1CN1CCNCC1 [Example 18, 6-(Ethoxymethyl)-5-(7-methoxy-5-methyl-1-benzothiophen-2-yl)-7-(piperazin-1-ylmethyl)pyrrolo-[2,1-f][1,2,4]triazin-4-amine] | – | – | no inhib. effect detect. | – | – |
| COc1cc(C)cc2cc(-c3c(CN4CCCC4)c(CN4CCNCC4)n4ncnc(N)c34)sc12 [Example 45, 5-(7-Methoxy-5-methyl-1-benzothiophen-2-yl)-7-(piperazin-1-ylmethyl)-6-(pyrrolidin-1-ylmethyl)pyrrolo[2,1-f][1,2,4]triazin-4-amine trihydrochloride] | 171 | – | – | – | – |

From patent US9206184B2, “Disubstituted benzothienyl-pyrrolotriazines and uses thereof” (BAYER INTELLECTUAL PROPERTY GmbH, priority 2011, dated 2015)
